Assay results from ChEMBL document CHEMBL5131396, “Structure-activity relationship for the folding intermediate-selective inhibition of DYRK1A” (Eur J Med Chem, 2022).
Values belong to the compound of their own block, whether it stands above or below them. Activity calls are given as the source filed them. The calls are words filed in the database; no cut-off is given here.

How the values were obtained:
[1] = tested on: HEK293; experiment: Cytotoxicity against HEK293 cells up to 8 uM; format: toxicity, cell-based; details: human, hek293, 8 µM
[2] = target: Serine/threonine-protein kinase D1 (Homo sapiens) (UniProt Q15139); experiment: Inhibition of recombinant PKD1 in HEK293 cells at 32 uM using DYRKtide peptide as substrate incubated for 45 mins in presence of ATP by Kinase-Glo Luminescent kinase assay
[3] = target: T1, Dual specificity tyrosine-phosphorylation-regulated kinase 1A (Homo sapiens, UniProt Q13627); experiment: Inhibition of FLAG-tagged full-length human recombinant DYRK1A (127 to 485 residues) expressed in Escherichia coli assessed as reduction in phosphorylated tyrosine level by Western blot analysis; details: dose <= 32.0 µM, DDE = dose-dependent effect
[4] = target: T1, Dual specificity tyrosine-phosphorylation-regulated kinase 1A; experiment: Inhibition of FLAG-tagged full-length human recombinant DYRK1A (127 to 485 residues) expressed in Escherichia coli assessed as reduction in autophosphorylation at Ser97 residue by Western blot analysis
[5] = target: Serine/threonine-protein kinase D1 (Homo sapiens) (UniProt Q15139); experiment: Inhibition of PKD1 in HEK293 cells at 1 to 2 uM measured after 4 days by Western blot analysis; details: dose 1-2 µM, time 4.0 day
[6] = target: T1, Dual specificity tyrosine-phosphorylation-regulated kinase 1A; experiment: Induction of degradation of endogenous FLAG-tagged full-length human recombinant DYRK1A (127 to 485 residues) expressed in Escherichia coli in HEK293 cells assessed as decrease in protein level measured after 4 days by Western blot analysis; details: dose <= 8.0 µM, time 4.0 day, DDE = dose-dependent effect
[7] = target: Rho-associated protein kinase 1 (Homo sapiens) (UniProt Q13464); experiment: Inhibition of ROCK1 in HEK293 cells at 1 to 2 uM measured after 4 days by Western blot analysis; format: cell-based; details: dose 1-2 µM, time 4.0 day
[8] = target: T1, Dual specificity tyrosine-phosphorylation-regulated kinase 1A; experiment: Inhibition of FLAG-tagged full-length human recombinant DYRK1A (127 to 485 residues) expressed in Escherichia coli assessed as reduction in TAU intermolecular phosphorylation incubated for 30 mins by Western blot analysis

Sequence of Serine/threonine-protein kinase D1 (Homo sapiens) (Q15139 whole entry, looked up, the tested form may be a part): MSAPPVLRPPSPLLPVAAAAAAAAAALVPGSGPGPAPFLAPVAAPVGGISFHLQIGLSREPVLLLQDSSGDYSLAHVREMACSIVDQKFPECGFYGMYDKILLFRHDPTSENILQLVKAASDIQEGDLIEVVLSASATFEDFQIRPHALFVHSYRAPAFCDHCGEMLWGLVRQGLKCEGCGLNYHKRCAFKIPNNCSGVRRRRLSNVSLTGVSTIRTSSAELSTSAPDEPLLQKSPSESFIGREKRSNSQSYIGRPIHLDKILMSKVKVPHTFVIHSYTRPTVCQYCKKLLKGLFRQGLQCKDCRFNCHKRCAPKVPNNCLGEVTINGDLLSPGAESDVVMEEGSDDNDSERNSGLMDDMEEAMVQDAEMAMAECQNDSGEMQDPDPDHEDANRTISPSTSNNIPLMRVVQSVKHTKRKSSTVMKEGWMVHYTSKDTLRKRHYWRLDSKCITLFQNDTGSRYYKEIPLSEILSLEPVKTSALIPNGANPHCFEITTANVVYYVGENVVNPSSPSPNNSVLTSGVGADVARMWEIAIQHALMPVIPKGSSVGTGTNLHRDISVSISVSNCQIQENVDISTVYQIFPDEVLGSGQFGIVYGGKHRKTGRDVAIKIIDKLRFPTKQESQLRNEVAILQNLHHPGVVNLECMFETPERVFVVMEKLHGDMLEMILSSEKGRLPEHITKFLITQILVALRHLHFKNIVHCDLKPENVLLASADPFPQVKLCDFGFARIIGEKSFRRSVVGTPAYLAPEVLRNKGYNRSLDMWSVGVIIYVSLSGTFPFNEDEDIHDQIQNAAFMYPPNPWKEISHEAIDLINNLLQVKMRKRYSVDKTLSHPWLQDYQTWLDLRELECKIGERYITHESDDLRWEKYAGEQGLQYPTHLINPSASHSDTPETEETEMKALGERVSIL
Sequence of Rho-associated protein kinase 1 (Homo sapiens) (Q13464 2-1354 limits assumed): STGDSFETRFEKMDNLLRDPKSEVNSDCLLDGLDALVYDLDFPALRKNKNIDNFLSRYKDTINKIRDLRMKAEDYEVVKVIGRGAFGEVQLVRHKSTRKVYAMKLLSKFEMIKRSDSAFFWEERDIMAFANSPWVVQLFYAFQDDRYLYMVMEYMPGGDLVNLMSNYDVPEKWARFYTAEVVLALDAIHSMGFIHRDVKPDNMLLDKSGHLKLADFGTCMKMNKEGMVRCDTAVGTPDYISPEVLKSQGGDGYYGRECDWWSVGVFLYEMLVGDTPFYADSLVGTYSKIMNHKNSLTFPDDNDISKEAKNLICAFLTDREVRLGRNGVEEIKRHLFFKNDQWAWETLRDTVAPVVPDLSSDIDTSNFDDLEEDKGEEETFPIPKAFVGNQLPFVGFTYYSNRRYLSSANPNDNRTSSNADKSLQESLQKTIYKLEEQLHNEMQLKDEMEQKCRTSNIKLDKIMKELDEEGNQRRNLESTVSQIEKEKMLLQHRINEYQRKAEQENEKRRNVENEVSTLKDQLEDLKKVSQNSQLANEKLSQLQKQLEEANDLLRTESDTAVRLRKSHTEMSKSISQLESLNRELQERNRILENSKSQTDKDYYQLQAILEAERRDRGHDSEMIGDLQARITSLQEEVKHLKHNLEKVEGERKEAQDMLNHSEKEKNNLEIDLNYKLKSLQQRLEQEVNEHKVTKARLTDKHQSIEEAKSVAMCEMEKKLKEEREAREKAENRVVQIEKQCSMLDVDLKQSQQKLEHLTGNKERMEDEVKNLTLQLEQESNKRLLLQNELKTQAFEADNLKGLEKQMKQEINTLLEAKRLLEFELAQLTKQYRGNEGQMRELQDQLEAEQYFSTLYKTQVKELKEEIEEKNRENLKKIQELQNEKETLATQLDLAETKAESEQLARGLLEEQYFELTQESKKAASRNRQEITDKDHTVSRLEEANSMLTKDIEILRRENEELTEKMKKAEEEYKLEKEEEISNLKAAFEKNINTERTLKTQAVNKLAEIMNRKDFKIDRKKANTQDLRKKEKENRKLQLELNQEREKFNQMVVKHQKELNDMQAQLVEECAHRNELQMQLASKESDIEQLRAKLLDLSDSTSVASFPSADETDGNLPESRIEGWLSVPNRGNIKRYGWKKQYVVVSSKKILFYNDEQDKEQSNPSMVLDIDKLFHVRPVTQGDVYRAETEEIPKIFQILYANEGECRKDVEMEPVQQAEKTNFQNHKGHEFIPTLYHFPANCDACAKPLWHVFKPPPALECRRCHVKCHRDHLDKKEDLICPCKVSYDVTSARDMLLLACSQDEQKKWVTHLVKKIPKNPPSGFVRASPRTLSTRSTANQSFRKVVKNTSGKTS

IC50 [4]: > 32 µM
Structure (SMILES): COc1ccc(/C=C2\SC(=S)NC2=O)cc1/C=C/C(C)(C)C

IC50 [4]: > 32 µM
Structure (SMILES): COc1ccc(/C=C2\SC(=S)NC2=O)cc1/C=C/C1CCCCC1

Further lines, the compound ahead of its results:

Structure (SMILES): COc1ccc(/C=C2\SC(=S)NC2=O)cc1C#C[Si](C)(C)C
Activity [1]: Non-Toxic
inhibition [2]: Active
inhibition [3]: Dde

Structure (SMILES): COc1ccc(/C=C2\SC(=S)NC2=O)cc1/C=C/[Si](C)(C)C
IC50 [4]: > 32 µM

Structure (SMILES): COc1ccc(/C=C2\SC(=S)NC2=O)cc1C#C[Si](C)(c1ccccc1)c1ccccc1
Activity [1]: Non-Toxic
inhibition [5]: Active
IC50 [4]: 0.53 µM
inhibition [2]: Active
Activity [6]: Dde
inhibition [3]: Dde
inhibition [7]: Active

Structure (SMILES): CCOc1cc(/C=C2\SC(=S)NC2=O)ccc1O
inhibition [8]: Active
